Our source for the IC50 values is US20220251081A1, “HETEROBICYCLIC INHIBITORS OF MAT2A AND METHODS OF USE FOR TREATING CANCER” (priority 2019, published 2022).

In one test the target is T1, MAT2A homodimer (Homo sapiens, UniProt P31153).
T1 construct: inferred from Ni sepharose purification and imidazole elution; made in house; host or cells: Sf9 insect cells, recombinant baculovirus (Bac to Bac, pFASTBAC1 vector)
The test is described as follows: Biochemical assay: inhibition of recombinant MAT2A homodimer (phosphate release, PiColorLock Gold). Particulars: MAT2A IC50 score; read-out: Enzyme Inhibition. In a few lines:
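Baculovirus/Sf9-expressed, Ni-purified MAT2A at 4 μg/mL in pH 8.0 Tris/KCl/MgCl2/EDTA/BSA buffer, preincubated with compound 60 min at 25 °C. Started with ATP and L-methionine substrate mix (500 μM and 40 μM, stock in mix), 60 min at 25 °C; released phosphate by PiColorLock Gold against a phosphate standard curve.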

The subject of test [1] is SAM in HCT116 human colon carcinoma cell line with deleted MTAP gene. The test is described as follows: Cellular assay of target engagement (SAM): SAM level by LC-MS/MS after 72 hrs. Format: cell-based. To be noted: HCT-116, IC50 score, read-out: Cell 72 h SAM Inhibition (MTAP −/−). Summed up:
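MTAP-deleted HCT116 cells were seeded, then exposed 24 h later to a 10-point 3-fold compound dilution series for 72 h at 37 °C/5% CO2. They were lysed in cold 80% methanol/acetic acid containing d3-SAM internal standard. SAM was quantified by LC-MS/MS (MRM, m/z 399.2→250.1).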

The next test relates to HCT116 MTAP-/-. The test is described as follows: Inhibition of cellular proliferation, 4 days, Cell Titer Glo, HCT116 MTAP-/-. It is filed as cell-based. To be noted: Homo sapiens, HCT-116, 96 h, IC50 score, read-out: 4 Day Relative Growth Inhibition (MTAP −/−). In a few lines:
(§1)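 Isogenic human colon carcinoma lines differing only in MTAP status, plated 24 h before dosing, then exposed for 4 days at 37 °C/5% CO2 to a 10-point 3-fold dilution series (0.2% DMSO final). Read-out is Cell Titer Glo ATP luminescence, blank-subtracted and normalised to in-plate DMSO control, plotted as % proliferation change versus log molar concentration.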
For orientation: Cellular ATP, detected with luciferase, serves as a proxy for viable cell number.

The next test has as its system HCT116 MTAP +/+. The test is described as follows: Inhibition of cellular proliferation, 4 days, Cell Titer Glo, HCT116 MTAP+/+. It is filed as cell-based. To be noted: Homo sapiens, HCT-116, 96 h, IC50 score, read-out: 4 Day Relative Growth Inhibition (MTAP +/+). Summed up:
as §1

T1 sequence (P31153 whole entry): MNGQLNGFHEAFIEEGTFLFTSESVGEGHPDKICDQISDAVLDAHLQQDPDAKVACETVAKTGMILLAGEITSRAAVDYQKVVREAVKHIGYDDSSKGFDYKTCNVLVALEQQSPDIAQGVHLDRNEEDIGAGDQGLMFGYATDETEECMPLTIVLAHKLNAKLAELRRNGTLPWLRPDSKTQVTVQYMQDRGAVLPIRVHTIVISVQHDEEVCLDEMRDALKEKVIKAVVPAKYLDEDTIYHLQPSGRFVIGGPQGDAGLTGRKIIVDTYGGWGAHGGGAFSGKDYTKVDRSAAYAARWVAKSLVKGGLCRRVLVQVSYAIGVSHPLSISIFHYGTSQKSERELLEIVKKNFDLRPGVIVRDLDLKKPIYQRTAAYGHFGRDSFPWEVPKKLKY

In the case of `CCOc1ccc2cc(-c3ccc(=O)n(C)c3)c(=O)n(-c3ccc(Cl)cc3)c2n1` [Example 199], the IC50 at MAT2A homodimer was below 100 nM; in test [1] it was below 100 nM; in the test with HCT116 MTAP-/-, 100 to 1000 nM; in the test on HCT116 MTAP +/+, at least 1000 nM.
Consider `CCOc1ccc2cc(-c3ccc4nnn(C)c4c3)c(=O)n(-c3ccc(Cl)cc3)c2n1` [Example 200], for which the IC50 on MAT2A homodimer is below 100 nM; in test [1], below 100 nM; in the test with HCT116 MTAP-/-, below 100 nM; with HCT116 MTAP +/+, 100 to 1000 nM.
Turning to `CCOc1ccc2cc(-c3ccc4nn(C)nc4c3)c(=O)n(-c3ccc(Cl)cc3)c2n1` [Example 201], the IC50 was below 100 nM on MAT2A homodimer, below 100 nM in test [1], below 100 nM with HCT116 MTAP-/- and at least 1000 nM in the test with HCT116 MTAP +/+.
Turning to `CCOc1ccc2cc(-c3ccnc(OC)c3)c(=O)n(-c3ccc(Cl)cc3)c2n1` [Example 202], the IC50 is below 100 nM on MAT2A homodimer, 100 to 1000 nM in test [1], 100 to 1000 nM in the test with HCT116 MTAP-/- and at least 1000 nM with HCT116 MTAP +/+.
With `CCOc1ccc2cc(-c3ccc4ncsc4c3)c(=O)n(-c3ccc(Cl)cc3)c2n1` [Example 203], the IC50 on MAT2A homodimer is below 100 nM; in test [1], below 100 nM; with HCT116 MTAP-/-, below 100 nM; in the test on HCT116 MTAP +/+, at least 1000 nM.
On to `CCOc1ccc2cc(-c3ccn4nccc4c3)c(=O)n(-c3ccc(Cl)cc3)c2n1` [Example 204], for which the IC50 on MAT2A homodimer was below 100 nM; in test [1], below 100 nM; with HCT116 MTAP-/-, below 100 nM; with HCT116 MTAP +/+, at least 1000 nM.
Turning to `CCOc1ccc2cc(-c3ccc4nncn4c3)c(=O)n(-c3ccc(Cl)cc3)c2n1` [Example 205], the IC50 at MAT2A homodimer is below 100 nM; in test [1] it was below 100 nM; in the test on HCT116 MTAP-/-, below 100 nM; in the test on HCT116 MTAP +/+ it was at least 1000 nM.
On to `CCOc1ccc2cc(-c3ccc4nn(CC(C)(C)O)cc4c3)c(=O)n(-c3ccc(OC(F)F)cc3)c2n1` [Example 207], for which the IC50 at MAT2A homodimer was below 100 nM; in test [1], below 100 nM; with HCT116 MTAP-/- it was 100 to 1000 nM; in the test on HCT116 MTAP +/+ it was 100 to 1000 nM.
For `CCOc1ccc2cc(-c3ccc(=O)n(C)c3)c(=O)n(-c3ccc(OC(F)F)cc3)c2n1` [Example 208], the IC50 on MAT2A homodimer was below 100 nM; in test [1], below 100 nM; in the test on HCT116 MTAP-/-, below 100 nM; with HCT116 MTAP +/+, 100 to 1000 nM.
With `CCOc1ccc2cc(-c3ccc4nnn(C)c4c3)c(=O)n(-c3ccc(OC(F)F)cc3)c2n1` [Example 209], the IC50 was below 100 nM at MAT2A homodimer, below 100 nM in test [1], below 100 nM in the test on HCT116 MTAP-/- and 100 to 1000 nM with HCT116 MTAP +/+.
Turning to `CCOc1ccc2cc(-c3ccc4nccn4c3)c(=O)n(-c3ccc(OC(F)F)cc3)c2n1` [Example 210], the IC50 at MAT2A homodimer was below 100 nM; in test [1] it was below 100 nM; in the test with HCT116 MTAP-/-, below 100 nM; in the test with HCT116 MTAP +/+ it was 100 to 1000 nM.
`CCOc1ccc2cc(-c3ccc4nn(CC(C)(C)O)cc4c3)c(=O)n(-c3ccc(OC(F)F)nc3)c2n1` [Example 213]: the IC50 at MAT2A homodimer was below 100 nM; in test [1], 100 to 1000 nM; with HCT116 MTAP-/-, 100 to 1000 nM; in the test with HCT116 MTAP +/+, at least 1000 nM.
Take `O=c1c(-c2ccc3nncn3c2)cc2ccc(OCC(F)(F)F)nc2n1-c1ccc(Cl)cc1` [Example 214]: the IC50 at MAT2A homodimer is below 100 nM; in test [1], below 100 nM; in the test on HCT116 MTAP-/- it was 100 to 1000 nM; in the test on HCT116 MTAP +/+ it was at least 1000 nM.
As to `CCOc1ccc2cc(-c3ccc4nncn4c3)c(=O)n(-c3ccc(OC(F)F)cc3)c2n1` [Example 216], the IC50 on MAT2A homodimer was below 100 nM; in test [1] it was below 100 nM; with HCT116 MTAP-/- it was below 100 nM; with HCT116 MTAP +/+, at least 1000 nM.
`CCOc1ccc2cc(-c3ccc4nncn4c3)c(=O)n(-c3ccc(OC)cc3)c2n1` [Example 217]: the IC50 is below 100 nM on MAT2A homodimer, below 100 nM in test [1], below 100 nM in the test with HCT116 MTAP-/- and at least 1000 nM in the test with HCT116 MTAP +/+.
In the case of `O=c1c(-c2ccc3nncn3c2)cc2ccc(OCC(F)F)nc2n1-c1ccc(Cl)cc1` [Example 218], the IC50 on MAT2A homodimer is below 100 nM; in test [1], below 100 nM; in the test with HCT116 MTAP-/-, below 100 nM; with HCT116 MTAP +/+, at least 1000 nM.
Regarding `CCOc1ccc2cc(-c3ccc4nncn4c3)c(=O)n(-c3ccc(OC(F)(F)F)cc3)c2n1` [Example 219], the IC50 at MAT2A homodimer is below 100 nM; in test [1], below 100 nM; in the test with HCT116 MTAP-/-, 100 to 1000 nM; with HCT116 MTAP +/+ it was at least 1000 nM.
As for `[2H]C([2H])([2H])Oc1ccc(-n2c(=O)c(-c3ccc4nncn4c3)cc3ccc(OCC(F)F)nc32)cc1` [Example 220], the IC50 at MAT2A homodimer is below 100 nM; in test [1] it was below 100 nM; in the test with HCT116 MTAP-/-, below 100 nM; in the test with HCT116 MTAP +/+ it was at least 1000 nM.
With `[2H]C([2H])([2H])Oc1ccc(-n2c(=O)c(-c3ccc4nncn4c3)cc3ccc(OCC)nc32)cc1` [Example 221], the IC50 at MAT2A homodimer is below 100 nM; in test [1] it was below 100 nM; in the test with HCT116 MTAP-/-, below 100 nM; with HCT116 MTAP +/+, at least 1000 nM.
On to `CCOc1ccc2nc(-c3ccc4nn(C)cc4c3)c(=O)n(-c3ccc(Cl)cc3)c2n1` [Example 222, 4-(4-chlorophenyl)-6-ethoxy-2-(2-methyl-2H-indazol-5-yl)pyrido[2,3-b]pyrazin-3(4H)-one], for which the IC50 on MAT2A homodimer is below 100 nM; in test [1] it was below 100 nM; in the test on HCT116 MTAP-/-, below 100 nM; in the test with HCT116 MTAP +/+, at least 1000 nM.
On to `CCOc1ccc2nc(-c3ccc(OC)cc3)c(=O)n(-c3ccc(OC(F)F)cc3)c2n1` [Example 223], for which the IC50 on MAT2A homodimer was below 100 nM; in test [1] it was 100 to 1000 nM; with HCT116 MTAP-/- it was 100 to 1000 nM; in the test on HCT116 MTAP +/+, at least 1000 nM.
Take `CCOc1ccc2nc(-c3ccc4nn(C)cc4c3)c(=O)n(-c3ccc(OC(F)F)cc3)c2n1` [Example 224]: the IC50 at MAT2A homodimer was below 100 nM; in test [1], below 100 nM; with HCT116 MTAP-/- it was below 100 nM; with HCT116 MTAP +/+, 100 to 1000 nM.
Consider `Cn1cc2cc(-c3nc4ccc(NCC(F)(F)F)nc4n(-c4ccc(OC(F)F)cc4)c3=O)ccc2n1` [Example 225], for which the IC50 on MAT2A homodimer is below 100 nM; in test [1], below 100 nM; in the test with HCT116 MTAP-/-, below 100 nM; in the test with HCT116 MTAP +/+, at least 1000 nM.
In the case of `Cn1cc2cc(-c3nc4ccc(NCC(F)(F)F)nc4n(-c4ccc(Cl)cc4)c3=O)ccc2n1` [Example 226], the IC50 on MAT2A homodimer is below 100 nM; in test [1] it was below 100 nM; in the test on HCT116 MTAP-/- it was below 100 nM; in the test with HCT116 MTAP +/+, at least 1000 nM.
In the case of `COc1ccc(-c2nc3ccc(NCC(F)(F)F)nc3n(-c3ccc(OC(F)F)cc3)c2=O)cc1` [Example 227], the IC50 on MAT2A homodimer is below 100 nM; in test [1], below 100 nM; in the test with HCT116 MTAP-/-, below 100 nM; in the test with HCT116 MTAP +/+ it was at least 1000 nM.
Regarding `Cn1cc2cc(-c3nc4ccc(OCC(F)F)nc4n(-c4ccc(OC(F)F)cc4)c3=O)ccc2n1` [Example 228], the IC50 at MAT2A homodimer was below 100 nM; in test [1], below 100 nM; in the test with HCT116 MTAP-/-, below 100 nM; in the test with HCT116 MTAP +/+, at least 1000 nM.
For the compound `CCOc1cnc2cc(-c3ccc4nn(C)cc4c3)c(=O)n(-c3ccc(Cl)cc3)c2n1` [Example 229, 5-(4-chlorophenyl)-3-ethoxy-7-(2-methyl-2H-indazol-5-yl)pyrido[2,3-b]pyrazin-6(5H)-one], the IC50 is below 100 nM at MAT2A homodimer, below 100 nM in test [1], below 100 nM with HCT116 MTAP-/- and at least 1000 nM with HCT116 MTAP +/+.
